According to patent publication US12180187B2, “1-phenyl-5-azinylpyrazolyl-3-oxyalkyl acids and their use for controlling unwanted plant growth” (BAYER AKTIENGESELLSCHAFT, priority 2019, dated 2024):

Columns and labels:
POLCO = assay: Pre-emergence action at 320 g/ha against POLCO; format: in vivo, Fallopia convolvulus (Polygonum convolvulus); conditions: visual scoring after about 3 weeks vs untreated controls
Summary of the method: (§1)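 Percent herbicidal activity was assessed by eye roughly three weeks post-application, comparing with untreated plants. Treatment consisted of applying formulated compound in water plus 0.5% additive to covering soil at 600 l/ha before emergence.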

VIOTR = assay: Pre-emergence action at 320 g/ha against VIOTR; format: in vivo, Viola tricolor; conditions: dosage 320 g/ha
Summary of the method: as §1

LOLRI [1] = assay: Pre-emergence action at 320 g/ha against LOLRI; format: in vivo, Lolium rigidum; conditions: visual scoring after about 3 weeks vs untreated controls
Text: (§2) b) Seeds of monocotyledonous and dicotyledonous weed plants and crop plants are placed in plastic or organic planting pots and covered with soil. The compounds of the invention, formulated in the form of wettable powders (WP) or as emulsion concentrates (EC), are then applied onto the surface of the covering soil as aqueous suspension or emulsion with addition of 0.5% additive at a water application rate of 600 l/ha (converted). After the treatment, the pots are placed in a greenhouse and kept under good growth conditions for the trial plants. After about 3 weeks, the effect of the preparations is scored visually in comparison with untreated controls as percentages. For example, 100% activity=the plants have died, 0% activity=like control plants. Tables 13 to 26 below show the effects of selected compounds of the general formula (I) on various harmful plants and at an application rate corresponding to 320 g/ha, which were obtained by the experimental procedure mentioned above.

ECHGC = assay: Pre-emergence action at 320 g/ha against ECHGC; format: in vivo, Echinochloa crus-galli; conditions: visual scoring after about 3 weeks vs untreated controls
Text: as §2

SETVI [2] = assay: Pre-emergence action at 320 g/ha against SETVI; format: in vivo, Setaria viridis; conditions: visual scoring after about 3 weeks vs untreated controls
Text: as §2

AMARE [3] = assay: Pre-emergence action at 320 g/ha against AMARE; format: in vivo, Amaranthus retroflexus; conditions: visual scoring after about 3 weeks vs untreated controls
Summary of the method: as §1

ALOMY [4] = assay: Pre-emergence action at 320 g/ha against ALOMY; format: in vivo, Alopecurus myosuroides; conditions: scored visually after about 3 weeks vs untreated controls (100% = plants have died)
Summary of the method: as §1

DIGSA [5] = assay: Pre-emergence action at 320 g/ha against DIGSA; format: in vivo, Digitaria sanguinalis; conditions: visual scoring after about 3 weeks vs untreated controls
Text: as §2

MATIN [6] = assay: Pre-emergence action at 320 g/ha against MATIN; format: in vivo, Tripleurospermum inodorum (Matricaria inodora); conditions: visual scoring after about 3 weeks vs untreated controls
Text: as §2

AVEFA = assay: Pre-emergence action at 320 g/ha against AVEFA; format: in vivo; conditions: visual scoring after about 3 weeks vs untreated controls
Text: as §2

VERPE [7] = assay: Pre-emergence action at 320 g/ha against VERPE; format: in vivo, Veronica persica; conditions: visual scoring after about 3 weeks vs untreated controls
Text: as §2

LOLRI [8] = assay: Post-emergence action against LOLRI, 1.28 kg/ha; format: in vivo, Lolium rigidum; conditions: dosage 1280 g/ha, visual rating about 3 weeks after treatment vs untreated controls
Method: (§3) • a) Seeds of mono- and dicotyledonous weed plants are placed in plastic pots in sandy loam soil (twin sowing with one species each of mono- or dicotyledonous weed plants per pot), covered with soil and cultivated in a greenhouse under controlled growth conditions. 2 to 3 weeks after sowing, the test plants are treated at the one-leaf stage. The compounds of the invention, formulated in the form of wettable powders (WP) or as emulsion concentrates (EC), are applied to the green parts of the plants as aqueous suspension or emulsion with addition of 0.5% additive at a water application rate equivalent to 600 litres per hectare. After the test plants have been kept in the greenhouse under optimum growth conditions for about 3 weeks, the activity of the preparations is rated visually in comparison to untreated controls. For example, 100% activity=the plants have died, 0% activity=like control plants. As shown by the results, compounds of the general formula (I) of the invention, in post-emergence treatment, have very good herbicidal efficacy (90% to 100% herbicidal action) against harmful plants such as Abutilon theophrasti, Digitaria sanguinalis, Echinochloa crus-galli, Matricaria inodora, Poa annua, at an application rate of 1.28 kg of active substance per hectare.

ALOMY [9] = assay: Pre-emergence action against ALOMY, 1280 g/ha; format: in vivo, Alopecurus myosuroides; conditions: visual scoring after about 3 weeks vs untreated controls, 100% = plants have died, 0% = like control plants
Summary of the method: (§4)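 Activity was scored visually as percent versus untreated controls about 3 weeks after treatment (100% = dead plants, 0% = control-like). Compounds, formulated as wettable powders or emulsion concentrates, were sprayed onto the covering soil over freshly sown seeds in sandy loam, with 0.5% additive and 600 L/ha water.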

ECHCG [10] = assay: Post-emergence action against ECHCG, 1.28 kg/ha; format: in vivo, Echinochloa crus-galli; conditions: dosage 1280 g/ha, visual rating about 3 weeks after treatment vs untreated controls
Summary of the method: (§5)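 Visual rating against untreated plants about 3 weeks after spraying gives % activity, where 0% means like controls and 100% means plants died. Plants were treated post-emergence at the one-leaf stage with compound formulated as wettable powder or emulsion concentrate, applied at 600 L water/ha plus 0.5% additive.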

SETVI [11] = assay: Pre-emergence action against SETVI, 1280 g/ha; format: in vivo, Setaria viridis; conditions: visual scoring after about 3 weeks vs untreated controls, 100% = plants have died, 0% = like control plants
Summary of the method: as §4

STEME [12] = assay: Post-emergence action against STEME, 1.28 kg/ha; format: in vivo, Stellaria media; conditions: dosage 1280 g/ha, visual rating about 3 weeks after treatment vs untreated controls (100% = plants died)
Summary of the method: as §5

DIGSA [13] = assay: Pre-emergence action against DIGSA, 1280 g/ha; format: in vivo, Digitaria sanguinalis; conditions: visual scoring after about 3 weeks vs untreated controls, 100% = plants have died, 0% = like control plants
Summary of the method: as §4

DIGSA [14] = assay: Post-emergence action against DIGSA, 1.28 kg/ha; format: in vivo, Digitaria sanguinalis; conditions: dosage 1280 g/ha, visual rating about 3 weeks after treatment vs untreated controls
Summary of the method: as §5

AMARE [15] = assay: Post-emergence action against AMARE, 1.28 kg/ha; format: in vivo, Amaranthus retroflexus; conditions: dosage 1280 g/ha, visual rating about 3 weeks after treatment vs untreated controls (100% = plants died)
Summary of the method: as §5

VERPE [16] = assay: Post-emergence action against VERPE, 1.28 kg/ha; format: in vivo, Veronica persica; conditions: dosage 1280 g/ha, visual rating about 3 weeks after treatment vs untreated controls (100% = plants died)
Summary of the method: as §5

AMARE [17] = assay: Pre-emergence action against AMARE, 1280 g/ha; format: in vivo, Amaranthus retroflexus; conditions: scored visually after about 3 weeks vs untreated controls (100% = plants have died)
Summary of the method: as §4

STEME [18] = assay: Pre-emergence action against STEME, 1280 g/ha; format: in vivo, Stellaria media; conditions: scored visually after about 3 weeks vs untreated controls (100% = plants have died)
Summary of the method: as §4

POAAN [19] = assay: Pre-emergence action against POAAN, 1280 g/ha; format: in vivo, Poa annua; conditions: visual scoring after about 3 weeks vs untreated controls, 100% = plants have died, 0% = like control plants
Summary of the method: as §4

LOLRI [20] = assay: Pre-emergence action against LOLRI, 1280 g/ha; format: in vivo, Lolium rigidum; conditions: visual scoring after about 3 weeks vs untreated controls, 100% = plants have died, 0% = like control plants
Summary of the method: as §4

MATIN [21] = assay: Pre-emergence action against MATIN, 1280 g/ha; format: in vivo, Tripleurospermum inodorum (Matricaria inodora); conditions: scored visually after about 3 weeks vs untreated controls (100% = plants have died)
Summary of the method: as §4

ABUTH = assay: Post-emergence action against ABUTH, 1.28 kg/ha; format: in vivo, Abutilon theophrasti; conditions: dosage 1280 g/ha, visual rating about 3 weeks after treatment vs untreated controls (100% = plants died)
Summary of the method: as §5

POAAN [22] = assay: Post-emergence action against POAAN, 1.28 kg/ha; format: in vivo, Poa annua; conditions: dosage 1280 g/ha, visual rating about 3 weeks after treatment vs untreated controls
Summary of the method: as §5

ECHCG [23] = assay: Pre-emergence action against ECHCG, 1280 g/ha; format: in vivo, Echinochloa crus-galli; conditions: visual scoring after about 3 weeks vs untreated controls, 100% = plants have died, 0% = like control plants
Summary of the method: as §4

SETVI [24] = assay: Post-emergence action against SETVI, 1.28 kg/ha; format: in vivo, Setaria viridis; conditions: dosage 1280 g/ha, visual rating about 3 weeks after treatment vs untreated controls
Method: as §3

ALOMY [25] = assay: Post-emergence action against ALOMY, 1.28 kg/ha; format: in vivo, Alopecurus myosuroides; conditions: dosage 1280 g/ha, visual rating about 3 weeks after treatment vs untreated controls
Summary of the method: as §5

MATIN [26] = assay: Post-emergence action against MATIN, 1.28 kg/ha; format: in vivo, Tripleurospermum inodorum (Matricaria inodora); conditions: dosage 1280 g/ha, visual rating about 3 weeks after treatment vs untreated controls (100% = plants died)
Summary of the method: as §5

VERPE [27] = assay: Pre-emergence action against VERPE, 1280 g/ha; format: in vivo, Veronica persica; conditions: scored visually after about 3 weeks vs untreated controls (100% = plants have died)
Summary of the method: as §4

| Compound | Pre-emergence action against POLCO in % (POLCO) | Pre-emergence action against VIOTR in % (VIOTR) | Pre-emergence action against LOLRI in % (LOLRI [1]) | Pre-emergence action against ECHGC in % (ECHGC) | Pre-emergence action against SETVI in % (SETVI [2]) | Pre-emergence action against AMARE in % (AMARE [3]) | Pre-emergence action at 320 g/ha against ALOMY in % (ALOMY [4]) | Pre-emergence action against DIGSA in % (DIGSA [5]) | Pre-emergence action against MATIN in % (MATIN [6]) | Pre-emergence action against AVEFA in % (AVEFA) | Pre-emergence action against VERPE in % (VERPE [7]) | Pre-emergence action against ALOMY (ALOMY [9]) | Post-emergence action against ECHCG (ECHCG [10]) | Pre-emergence action against SETVI (SETVI [11]) | Pre-emergence action against DIGSA (DIGSA [13]) | Post-emergence action against DIGSA (DIGSA [14]) | Post-emergence action against AMARE (AMARE [15]) | Post-emergence action against VERPE (VERPE [16]) | Pre-emergence action against AMARE (AMARE [17]) | Pre-emergence action against STEME (STEME [18]) | further results |
| --- | --- | --- | --- | --- | --- | --- | --- | --- | --- | --- | --- | --- | --- | --- | --- | --- | --- | --- | --- | --- | --- |
| COC(=O)C(C)Oc1nn(-c2ccccc2F)c(-c2ccc(F)nc2)c1Br (stereo not drawn) [VII-060] | 90% | 100% | 100% | 90% | 90% | 100% | 100% | 100% | 90% | 90% | 100% | – | – | – | – | – | – | – | – | – | – |
| COC(=O)COc1nn(-c2ccccc2F)c(-c2ccc(F)nc2)c1I [VII-113] | 90% | 100% | 100% | 90% | 90% | 100% | 90% | – | 90% | 90% | 90% | – | – | – | – | – | – | – | – | – | – |
| CCOC(=O)COc1nn(-c2ccccc2F)c(-c2ccc(F)nc2)c1C1CC1 [VII-119] | – | – | – | – | – | – | – | – | – | – | – | 100% | 100% | 100% | 100% | 100% | 100% | 100% | 100% | 100% | Post-emergence action against LOLRI (LOLRI [8]): 100%; Post-emergence action against STEME (STEME [12]): 100%; Pre-emergence action against POAAN (POAAN [19]): 100%; Pre-emergence action against LOLRI (LOLRI [20]): 100%; Pre-emergence action against MATIN (MATIN [21]): 100%; Post-emergence action against ABUTH (ABUTH): 90%; Post-emergence action against POAAN (POAAN [22]): 100%; Pre-emergence action against ECHCG (ECHCG [23]): 100%; Post-emergence action against SETVI (SETVI [24]): 100%; Post-emergence action against ALOMY (ALOMY [25]): 100%; Post-emergence action against MATIN (MATIN [26]): 100%; Pre-emergence action against VERPE (VERPE [27]): 100% |
| O=C(COc1nn(-c2ccccc2F)c(-c2ccnc(F)c2)c1Br)OCC1CCOC1 (stereo not drawn) [VIII-011] | – | 100% | 90% | 90% | 90% | 100% | 100% | 100% | 90% | – | – | 90% | 100% | 100% | 90% | 100% | 100% | 100% | 100% | 100% | Pre-emergence action against POAAN (POAAN [19]): 100%; Pre-emergence action against LOLRI (LOLRI [20]): 100%; Pre-emergence action against MATIN (MATIN [21]): 100%; Post-emergence action against ABUTH (ABUTH): 90%; Post-emergence action against POAAN (POAAN [22]): 100%; Pre-emergence action against ECHCG (ECHCG [23]): 100%; Post-emergence action against SETVI (SETVI [24]): 100%; Post-emergence action against ALOMY (ALOMY [25]): 100%; Post-emergence action against MATIN (MATIN [26]): 90%; Pre-emergence action against VERPE (VERPE [27]): 100% |
